Legend:
[1] = test system: EV-D68 US/KY/14-18953 virus; experiment: Viral CPE assay, EV-D68 US/KY/14-18953 in RD cells; type: cell-based, enterovirus D68 (EV-D68); conditions: EV-D68 US/KY/14-18953, RD cells
[2] = test system: EV-D68 viral capsid protein VP1 expression; experiment: Immunofluorescence imaging of viral capsid protein VP1 in infected RD cells; type: cell-based; conditions: 9 hpi; for VP1 protein expression (immunofluorescence imaging): 1 μM, US/KY/14-18953, MOI = 1
[3] = test system: EV-D68 viral capsid protein VP1 expression; experiment: Western blot of viral capsid protein VP1 in infected RD cells; type: cell-based; conditions: 9 hpi, US/KY/14-18953, MOI = 1
sodium channels = conditions: from 2 μM to 50 μM, rat DRG neurons, overnight incubation, veratridine 30 μM

Compound | SI (selectivity index, CC50/EC50) [1] | VP1 protein expression (immunofluorescence imaging) [2] | VP1 expression (western blot) ([3]; 1 μM) | fluorescent signal of VP1 (immunofluorescence imaging) ([2]; 3 μM, US/KY/14-18953, MOI = 1, vs DMSO control) | VP1 expression (western blot) ([3]; 3 μM) | inhibition of sodium current conductance (sodium channels)
O=C(NCCN1CCCC1)c1cc(-c2cccs2)nc2ccccc12 [Compound 12c, N-[2-(pyrrolidin-1-yl)ethyl]-2-(thiophen-2-yl)quinoline-4-carboxamide] | > 600 | completely blocked | completely blocked |  |  | 
CCCCOc1cc(C(=O)NCCN(CC)CC)c2ccccc2n1 [Dibucaine, dibucaine, reference compound] |  |  |  | significantly reduced | nearly completely inhibited | 
CN(C)CCNC(=O)c1cc(-c2cccs2)nc2ccccc12 [Compound 12a, N-[2-(dimethylamino)ethyl]-2-(thiophen-2-yl)quinoline-4-carboxamide] | > 600 | completely blocked | completely blocked |  |  | 
CN(C)CCNC(=O)c1cc(-c2ccccc2)nc2ccccc12 [Compound 10a, N-[2-(dimethylamino)ethyl]-2-phenylquinoline-4-carboxamide] |  | completely blocked | completely blocked |  |  | minimal to no effect
